Results published in PMC8131363 (Scientific Reports, 2021).
Counter-ions that a name gives are not always drawn. Like-named read-outs stand apart in the source and are kept apart here.

What was measured:
cCaSR [1] = target: T1, cCaSR (Felis catus, UniProt C7FF08); test: cCaSR PAM luminescence assay, double injection with 0.5 mM CaCl2, HEK293/T-REx/natClytin-cCaSR
T1 sequence (C7FF08 1-1081): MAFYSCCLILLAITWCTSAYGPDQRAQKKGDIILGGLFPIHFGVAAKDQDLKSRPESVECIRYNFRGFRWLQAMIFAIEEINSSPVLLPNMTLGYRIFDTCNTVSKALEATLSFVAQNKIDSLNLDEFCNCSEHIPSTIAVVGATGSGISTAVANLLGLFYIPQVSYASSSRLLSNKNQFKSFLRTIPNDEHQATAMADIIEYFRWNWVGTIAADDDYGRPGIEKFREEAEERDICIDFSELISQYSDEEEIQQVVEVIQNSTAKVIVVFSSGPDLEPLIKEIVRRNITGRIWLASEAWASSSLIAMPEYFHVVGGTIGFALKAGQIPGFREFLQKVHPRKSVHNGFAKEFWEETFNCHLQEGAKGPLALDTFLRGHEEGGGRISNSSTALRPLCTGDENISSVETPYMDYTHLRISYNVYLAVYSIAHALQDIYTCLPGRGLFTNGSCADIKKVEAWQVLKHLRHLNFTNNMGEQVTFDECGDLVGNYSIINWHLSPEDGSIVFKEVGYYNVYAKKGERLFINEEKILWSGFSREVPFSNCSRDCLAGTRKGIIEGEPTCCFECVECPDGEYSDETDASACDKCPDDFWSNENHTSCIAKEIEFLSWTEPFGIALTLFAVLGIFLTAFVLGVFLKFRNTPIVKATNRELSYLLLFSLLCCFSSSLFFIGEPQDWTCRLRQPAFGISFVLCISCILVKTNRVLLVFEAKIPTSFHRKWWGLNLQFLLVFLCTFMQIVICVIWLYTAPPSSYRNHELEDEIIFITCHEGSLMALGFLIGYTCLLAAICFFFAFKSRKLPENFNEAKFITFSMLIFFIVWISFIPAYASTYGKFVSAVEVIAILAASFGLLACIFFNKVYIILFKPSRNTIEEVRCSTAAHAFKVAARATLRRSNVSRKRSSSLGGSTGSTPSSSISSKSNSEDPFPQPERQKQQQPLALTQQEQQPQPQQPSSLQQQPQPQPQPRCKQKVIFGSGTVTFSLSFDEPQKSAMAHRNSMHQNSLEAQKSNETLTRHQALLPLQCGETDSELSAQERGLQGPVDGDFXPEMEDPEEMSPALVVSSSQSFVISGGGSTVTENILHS
Description: The cCaSR expression constructs were stably-transfected in the mammalian cell line, HEK293/ T-REx/ natClytin. Transfections were performed by electroporation, following standard methodologies. Stably-transfected target and mock pools were obtained after 2–3 weeks of antibiotic selection, and clones were selected for testing. In order to evaluate the activity of each clone, 10 mM Calcium was injected onto the cells and the resulting luminescence was measured.
All compounds screened on the receptor were analysed in parallel with Calcium, on the HEK293/ T-REx/ natClytin-cCaSR or hCaSR stable or transient cell lines. Prior to the measurements, the cells were incubated with 10 µM of photoprotein substrate, Coelenterazine, prepared in Calcium-free Tyrode’s buffer at 37 °C for 3–4 h. All the data was captured using a FLIPR Tetra (Molecular Devices). A single or double injection protocol was used to capture the data for potential agonists and PAMs, respectively. The compounds tested were all prepared at desired concentration in Calcium-Free Tyrode’s buffer supplemented with 0.5% DMSO. For the activity determination of potential agonists, the single injection protocol was used, with CaCl2 as the positive control for each run. Each compound was injected into specific wells and the luminescence signal was measured for 1 min. for each compound. For potential PAMs, the double injection protocol was used. The first injection was identical to the one described above for potential agonists. A 20 min. resting period followed the first injection and a second injection of 0.5 mM CaCl2 in Calcium-free Tyrode’s buffer was injected to all wells, and the resulting luminescence signal was again measured for 1 min for each compound.
The half maximal effective concentrations (EC50) were identified by nonlinear regression using a variable slope model with the equation Y = Bottom + (X^Hillslope)*(Top–Bottom)/ (X^HillSlope + EC50^HillSlope), where Y is the agonist concentration, Top and Bottom are the plateaus in the same units as Y and HillSlope is the Slope factor or Hill slope. All calculations and plots were done using GraphPad Prism 8. […] In these cases the EC50 was noted as being higher than the maximum concentration used in the assay.

cCaSR [2] = target: T1, cCaSR; test: cell-based
cCaSR [3] = target: T1, cCaSR
[4] = Supplementary Table I, PAM assay, dash = no activity
[5] = EC50 (M), agonist assay, stable inducible cCaSR line, > 0.01 M = maximal response not reached
[6] = EC50 Ago (M), Supplementary Table I, agonist assay, > 0.01 M = maximal response not reached
[7] = cCaSR activity, agonist assay, stable inducible cCaSR line, at least three wells

| SMILES | EC50 PAM (M) (cCaSR [1]; [4]) | EC50 (cCaSR [2]; [5]) | EC50 (cCaSR [2]; [6]) | EC50 (cCaSR [2]; [7]) | further results |
| --- | --- | --- | --- | --- | --- |
| N[C@@H](CCC(=O)N[C@@H](CSCCO)C(=O)NCC(=O)O)C(=O)O [S-(2-Hydroxyethyl)glutathione] | - | 0.00211 M | 0.0021 M | 0.001 to 0.01 M |  |
| NC[C@@H]1O[C@H](O[C@H]2[C@@H](O)[C@H](O[C@@H]3[C@@H](O)[C@H](N)C[C@H](N)[C@H]3O[C@H]3O[C@H](CO)[C@@H](O)[C@H](O)[C@H]3N)O[C@@H]2CO)[C@H](N)[C@@H](O)[C@@H]1O [Paromomycin sulfate salt, reference compound] | - | 0.00108 M | 0.00108 M |  |  |
| N[C@@H](CS(=O)(=O)O)C(=O)O [L-Cysteic acid monohydrate] | - | 0.00234 M | 0.00234 M | 0.001 to 0.01 M | agonist activity on cCaSR (in words) (cCaSR [3]): agonist activity |
| N[C@@H](CCC(=O)N[C@@H](Cc1ccc(O)cc1)C(=O)O)C(=O)O [γ-Glu-Tyr] | - | 0.00388 M | 0.00388 M | 0.001 to 0.01 M |  |
| CSC[C@H](NC(=O)CC[C@H](N)C(=O)O)C(=O)NCC(=O)O [S-Methylglutathione] | - | 0.00442 M | 0.00442 M | 0.001 to 0.01 M |  |
| N[C@H](CCC(=O)N[C@@H](Cc1c[nH]c2ccccc12)C(=O)O)C(=O)O [γ-D-Glu-Trp] | - | 0.0042 M |  |  |  |
| NC(=O)CC[C@H](NC(=O)CC[C@H](N)C(=O)O)C(=O)O [γ-Glu-Gln] | - |  |  | > 0.01 M |  |
| CSCC[C@H](NC(=O)CC[C@H](N)C(=O)O)C(=O)O [γ-Glu-Met] | - |  |  | > 0.01 M | EC50 (cCaSR [2]; EC50 Value (heat map Fig. 5), cCaSR agonists, heat map): 0.00687 M |
| N[C@@H](CCCC(=O)O)C(=O)O [L-2-Aminoadipic acid] | - |  |  | > 0.01 M |  |
| N[C@@H](C[C@H](O)C(=O)O)C(=O)O [2S,4S-g-Hydroxy-L-glutamic acid] | - |  |  | > 0.01 M |  |
| N[C@@H](CCS(=O)(=O)O)C(=O)O [L-Homocysteic acid] | - |  |  | > 0.01 M |  |
| N[C@@H](CC(=O)NCC(=O)O)C(=O)O [β-Asp-Gly] | - |  |  | > 0.01 M |  |
| NC[C@H]1O[C@H](O[C@H]2[C@H](O[C@@H]3O[C@H](CO)[C@@H](O)[C@H]3O)[C@@H](O)[C@H](N)C[C@@H]2N)[C@H](N)[C@@H](O)[C@@H]1O [Ribostamycin sulfate salt, reference compound] | - |  |  | > 0.01 M |  |
| COC(=O)C[C@H](N)C(=O)O [L-Aspartic acid β-methyl ester hydrochloride] | - |  |  | > 0.01 M | agonist activity on cCaSR (in words) (cCaSR [3]): agonist activity |
| CN[C@@H]1[C@@H](O)[C@@H](O[C@@H]2[C@@H](O)[C@H](O[C@H]3OC(CN)=CC[C@H]3N)[C@@H](N)C[C@H]2N)OC[C@]1(C)O [Sisomicin sulfate salt, reference compound] | - | 0.000299 M | 0.0003 M |  |  |
| C[Se]C[C@H](N)C(=O)O [Se-(Methyl)selenocysteine] | - | 0.00447 M | 0.00447 M | 0.001 to 0.01 M | agonist activity on cCaSR (in words) (cCaSR [3]): agonist activity |
| NC(CCP(=O)(O)O)C(=O)O (stereo not drawn) [2-Amino-4-phosphonobutyric acid] | - |  |  | > 0.01 M |  |

| SMILES | EC50 PAM (M) (cCaSR [1]; [4]) | EC50 (cCaSR [2]; [5]) | EC50 (cCaSR [2]; [6]) | EC50 (cCaSR [2]; [7]) | further results |
| --- | --- | --- | --- | --- | --- |
| N[C@@H](CCC(=O)N[C@@H](Cc1c[nH]c2ccccc12)C(=O)O)C(=O)O [γ-Glu-Trp] | - |  |  | > 0.01 M |  |
| N[C@@H](CCC(=O)N[C@@H](Cc1ccccc1)C(=O)O)C(=O)O [γ-Glu-Phe] | - | 0.00232 M |  | 0.001 to 0.01 M |  |
| N[C@@H](CCC(=O)NCC(=O)O)C(=O)O [γ-Glu-Gly] | - |  |  | > 0.01 M |  |
| N[C@@H](CC(=O)N[C@@H](Cc1ccccc1)C(=O)O)C(=O)O [β-Asp-Phe] | - |  |  | > 0.01 M |  |
| N[C@@H](CCC(=O)N[C@@H](CCC(=O)O)C(=O)O)C(=O)O [γ-Glu-Glu] | - | 0.00207 M | 0.00206 M | 0.001 to 0.01 M |  |
| NC(CC(F)C(=O)O)C(=O)O (racemic) [4-Fluoro-DL-glutamic acid] | - |  |  | > 0.01 M |  |
| CC(C)C[C@H](NC(=O)C[C@H](N)C(=O)O)C(=O)O [β-Asp-Leu] | - |  | > 0.01 M | > 0.01 M |  |
| CNC(C)C1CCC(N)C(OC2C(N)CC(N)C(OC3OCC(C)(O)C(NC)C3O)C2O)O1 (stereo not drawn) [Gentamicin, reference compound] | - | 0.000989 M | 0.00099 M |  |  |
| N[C@@H](Cc1ccc(OP(=O)(O)O)cc1)C(=O)O [O-Phospho-L-tyrosine] | - |  |  | > 0.01 M | agonist activity on cCaSR (in words) (cCaSR [3]): agonist activity |
| N[C@@H](CP(=O)(O)O)C(=O)O [L-( +)-2-Amino-3-phosphonopropionic acid, L-(+)-2-Amino-3-phosphonopropionic acid] |  |  |  |  | EC50 PAM (M) (cCaSR [1]): -; EC50 (cCaSR [2]; cCaSR activity): > 0.01 M |
| CC[C@H](NC(=O)CC[C@H](N)C(=O)O)C(=O)O | - |  |  | > 0.01 M |  |
| NC(CC(C(=O)O)C(=O)O)C(=O)O (racemic) [γ-Carboxy-DL-glutamic acid] | - |  |  | > 0.01 M |  |
| COC(=O)C(N)CC(=O)O (racemic) [DL-Aspartic acid α-methyl ester] | - |  |  | > 0.01 M | agonist activity on cCaSR (in words) (cCaSR [3]): agonist activity |
| C[C@H](NC(=O)C[C@H](N)C(=O)O)C(=O)O [β-Asp-Ala] | - |  |  | > 0.01 M |  |
| CC(C)C[C@H](NC(=O)CC[C@H](N)C(=O)O)C(=O)O [γ-Glu-Leu] | - |  |  | > 0.01 M |  |
| N[C@@H](CCC(=O)N[C@@H](CSCc1c[nH]c2ccccc12)C(=O)NCC(=O)O)C(=O)O [3-Glutathionyl-S-methylindole] | - | 0.00374 M | 0.00375 M | 0.001 to 0.01 M |  |
| N[C@@H](CCC(=O)N[C@@H](CS)C(=O)O)C(=O)O [γ-Glu-Cys] | - |  |  | > 0.01 M |  |
